According to the supplement of paper PMC10307832:

Key:
Experiment in all cases: relative viability (nuclei count vs DMSO), 5 days (fraction); higher = more cells survive
NCI-H2023 = test system: NCI-H2023
How it was run: (§1)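 One day after seeding in 1536-well plates, lung cancer cell lines were dosed by pin tool. Dosing was either single-drug or a fixed anchor-drug dose plus five library-drug doses (not always all listed) in √10 steps. After 5 days, nuclei were stained in one fix-and-stain step and counted on 4× images, and relative viability is the nuclei count of treated wells over that of vehicle wells, given as the median of duplicate plates.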

NCI-H2085 = test system: NCI-H2085
How it was run: as §1

SK-LU-1 = test system: SK-LU-1
How it was run: as §1

PC-14 = test system: PC-14
How it was run: as §1

LCLC-97TM1 = test system: LCLC-97TM1
How it was run: as §1

NCI-H2342 = test system: NCI-H2342
How it was run: as §1

NCI-H2009 = test system: NCI-H2009
How it was run: as §1

EPLC-272H = test system: EPLC-272H
How it was run: as §1

H3255 = test system: H3255
How it was run: as §1

LXF-289 = test system: LXF-289
How it was run: as §1

NCI-H727 = test system: NCI-H727
How it was run: as §1

NCI-H1650 = test system: NCI-H1650
How it was run: as §1

HOP-62 = test system: HOP-62
How it was run: as §1

NCI-H2347 = test system: NCI-H2347
How it was run: as §1

NCI-H2126 = test system: NCI-H2126
How it was run: as §1

NCI-H322M = test system: NCI-H322M
How it was run: as §1

NCI-H1915 = test system: NCI-H1915
How it was run: as §1

SW 1573 = test system: SW 1573
How it was run: as §1

EMC-BAC-2 = test system: EMC-BAC-2
How it was run: as §1

NCI-H647 = test system: NCI-H647
How it was run: as §1

NCI-H1993 = test system: NCI-H1993
How it was run: as §1

NCI-H661 = test system: NCI-H661
How it was run: as §1

Molecule `C=C1C(=O)O[C@@H](CCCCCCCC)[C@@H]1C(=O)O` [C-75] + Cc1cc(Nc2cc(N3CCN(C)CC3)nc(Sc3ccc(NC(=O)C4CC4)cc3)n2)n[nH]1 [Tozasertib] (partner 0.1 µM) has a relative viability (NCI-H2023; first compound 0.08 µM) of 0.407, a relative viability (NCI-H2023; first compound 0.253 µM) of 0.443 and a relative viability (NCI-H2023; first compound 0.8 µM) of 0.302. For the same molecule, the relative viability (NCI-H2023; first compound 2.53 µM) was 0.384, the relative viability (NCI-H2023; first compound 8 µM) was 0.409 and the relative viability (NCI-H2085; first compound 0.08 µM) was 0.798. It also gave a relative viability (NCI-H2085; first compound 0.253 µM) of 0.746, a relative viability (NCI-H2085; first compound 0.8 µM) of 0.79 and a relative viability (NCI-H2085; first compound 2.53 µM) of 0.803. The relative viability (NCI-H2085; first compound 8 µM) was 0.67, the relative viability (SK-LU-1; first compound 0.08 µM) was 0.349 and the relative viability (SK-LU-1; first compound 0.253 µM) was 0.374. It also gave a relative viability (SK-LU-1; first compound 0.8 µM) of 0.357, a relative viability (SK-LU-1; first compound 2.53 µM) of 0.314 and a relative viability (SK-LU-1; first compound 8 µM) of 0.311. The relative viability (PC-14; first compound 0.08 µM) was 0.597, the relative viability (PC-14; first compound 0.253 µM) was 0.479 and the relative viability (PC-14; first compound 0.8 µM) was 0.548. It also gave a relative viability (PC-14; first compound 2.53 µM) of 0.544, a relative viability (PC-14; first compound 8 µM) of 0.578 and a relative viability (LCLC-97TM1; first compound 0.08 µM) of 0.23. It also gave a relative viability (LCLC-97TM1; first compound 0.253 µM) of 0.319, a relative viability (LCLC-97TM1; first compound 0.8 µM) of 0.22 and a relative viability (LCLC-97TM1; first compound 2.53 µM) of 0.16. The relative viability (LCLC-97TM1; first compound 8 µM) was 0.187, the relative viability (NCI-H2342; first compound 0.08 µM) was 0.652 and the relative viability (NCI-H2342; first compound 0.253 µM) was 0.503. The relative viability (NCI-H2342; first compound 0.8 µM) was 0.604, the relative viability (NCI-H2342; first compound 2.53 µM) was 0.496 and the relative viability (NCI-H2342; first compound 8 µM) was 0.472. It also gave a relative viability (NCI-H2009; first compound 0.08 µM) of 0.724, a relative viability (NCI-H2009; first compound 0.253 µM) of 0.743 and a relative viability (NCI-H2009; first compound 0.8 µM) of 0.743. It also gave a relative viability (NCI-H2009; first compound 2.53 µM) of 0.707, a relative viability (NCI-H2009; first compound 8 µM) of 0.691 and a relative viability (EPLC-272H; first compound 0.08 µM) of 0.299. It also gave a relative viability (EPLC-272H; first compound 0.253 µM) of 0.243, a relative viability (EPLC-272H; first compound 0.8 µM) of 0.22 and a relative viability (EPLC-272H; first compound 2.53 µM) of 0.25. It also gave a relative viability (EPLC-272H; first compound 8 µM) of 0.208, a relative viability (H3255; first compound 0.08 µM) of 0.609 and a relative viability (H3255; first compound 0.253 µM) of 0.856. For the same molecule, the relative viability (H3255; first compound 0.8 µM) was 0.505, the relative viability (H3255; first compound 2.53 µM) was 0.701 and the relative viability (H3255; first compound 8 µM) was 0.751. It also gave a relative viability (LXF-289; first compound 0.08 µM) of 0.193, a relative viability (LXF-289; first compound 0.253 µM) of 0.18 and a relative viability (LXF-289; first compound 0.8 µM) of 0.183. The relative viability (LXF-289; first compound 2.53 µM) was 0.119, the relative viability (LXF-289; first compound 8 µM) was 0.182 and the relative viability (NCI-H727; first compound 0.08 µM) was 0.623. The relative viability (NCI-H727; first compound 0.253 µM) was 0.623, the relative viability (NCI-H727; first compound 0.8 µM) was 0.559 and the relative viability (NCI-H727; first compound 8 µM) was 0.674. For the same molecule, the relative viability (NCI-H1650; first compound 0.08 µM) was 0.413, the relative viability (NCI-H1650; first compound 0.253 µM) was 0.647 and the relative viability (NCI-H1650; first compound 2.53 µM) was 0.422. It also gave a relative viability (NCI-H1650; first compound 8 µM) of 0.38, a relative viability (HOP-62; first compound 0.08 µM) of 0.373 and a relative viability (HOP-62; first compound 0.253 µM) of 0.389. The relative viability (HOP-62; first compound 0.8 µM) was 0.363, the relative viability (HOP-62; first compound 2.53 µM) was 0.385 and the relative viability (HOP-62; first compound 8 µM) was 0.335. It also gave a relative viability (NCI-H2347; first compound 0.08 µM) of 0.558, a relative viability (NCI-H2347; first compound 0.253 µM) of 0.74 and a relative viability (NCI-H2347; first compound 0.8 µM) of 0.517. For the same molecule, the relative viability (NCI-H2347; first compound 8 µM) was 0.534, the relative viability (NCI-H2126; first compound 0.08 µM) was 0.873 and the relative viability (NCI-H2126; first compound 0.253 µM) was 0.949. It also gave a relative viability (NCI-H2126; first compound 0.8 µM) of 0.841, a relative viability (NCI-H2126; first compound 2.53 µM) of 0.795 and a relative viability (NCI-H2126; first compound 8 µM) of 0.777. The relative viability (NCI-H322M; first compound 0.08 µM) was 0.46, the relative viability (NCI-H322M; first compound 0.253 µM) was 0.453 and the relative viability (NCI-H322M; first compound 0.8 µM) was 0.458. For the same molecule, the relative viability (NCI-H322M; first compound 2.53 µM) was 0.302, the relative viability (NCI-H322M; first compound 8 µM) was 0.487 and the relative viability (NCI-H1915; first compound 0.08 µM) was 0.405. For the same molecule, the relative viability (NCI-H1915; first compound 0.253 µM) was 0.403, the relative viability (NCI-H1915; first compound 0.8 µM) was 0.432 and the relative viability (NCI-H1915; first compound 2.53 µM) was 0.409. The relative viability (NCI-H1915; first compound 8 µM) was 0.429, the relative viability (SW 1573; first compound 0.08 µM) was 0.268 and the relative viability (SW 1573; first compound 0.253 µM) was 0.161. It also gave a relative viability (SW 1573; first compound 0.8 µM) of 0.189, a relative viability (SW 1573; first compound 2.53 µM) of 0.215 and a relative viability (SW 1573; first compound 8 µM) of 0.184. For the same molecule, the relative viability (EMC-BAC-2; first compound 0.08 µM) was 0.279, the relative viability (EMC-BAC-2; first compound 0.253 µM) was 0.288 and the relative viability (EMC-BAC-2; first compound 0.8 µM) was 0.294. The relative viability (EMC-BAC-2; first compound 2.53 µM) was 0.235, the relative viability (EMC-BAC-2; first compound 8 µM) was 0.315 and the relative viability (NCI-H647; first compound 0.08 µM) was 0.24. It also gave a relative viability (NCI-H647; first compound 0.253 µM) of 0.365, a relative viability (NCI-H647; first compound 0.8 µM) of 0.211 and a relative viability (NCI-H647; first compound 2.53 µM) of 0.457. For the same molecule, the relative viability (NCI-H647; first compound 8 µM) was 0.233, the relative viability (NCI-H1993; first compound 0.08 µM) was 0.611 and the relative viability (NCI-H1993; first compound 0.253 µM) was 0.623. For the same molecule, the relative viability (NCI-H1993; first compound 0.8 µM) was 0.59, the relative viability (NCI-H1993; first compound 2.53 µM) was 0.495 and the relative viability (NCI-H1993; first compound 8 µM) was 0.529. The relative viability (NCI-H661; first compound 0.08 µM) was 0.355, the relative viability (NCI-H661; first compound 0.253 µM) was 0.347 and the relative viability (NCI-H661; first compound 0.8 µM) was 0.334. The relative viability (NCI-H661; first compound 2.53 µM) was 0.288 and the relative viability (NCI-H661; first compound 8 µM) was 0.339.
